Consider 17 molecules from patent US11434222B2, “MAGL inhibitors” (H. LUNDBECK A/S, priority 2020, dated 2022).

Where two headings read alike, the source gives them in different places.

The nature of series [1]: Kinetic solubility in PBS. It is filed as physicochemical. The note with it: aqueous buffer, kinetic from dmso stock. As for the experimental part:
The kinetic solubility of test articles was determined in PBS at pH 2.0 and pH 7.4 in duplicate. A stock solution of test compound in DMSO (10 mM) was incubated at RT for 2 hours with shaking at 1,100 RPM. The sample was then filtered using a vacuum manifold, diluted, and analyzed by LC-MS/MS. Chromatographic conditions: Phenomenex Synergi 4μ Hydro-PR 80A column (2.0×30 mm) coupled with pre-guard column; mobile phase=0.1% formic acid in acetonitrile and 0.1% formic acid in water; flowrate=0.65 mL/min; column temperature=40° C.; injection volume: 3 μL.
Mass conditions: Turbo spray ion source; ESI ionization model; MRM scan type; Collison gas=6 L/min; Curtain gas=30 L/min; Nebulize gas=50 L/min; Auxiliary gas=50 L/min; Temperature=500 degrees C.; Ion spray voltage=+5500 v (positive MRM).
The filtered solution was analyzed and quantified against a standard of known concentration in DMSO using UPLC coupled with mass spectral peak identification and quantitation. Solubility values of the test articles were calculated using Microsoft Excel as follows (DF is the dilution factor): […]

The target of series [2] is T1, MAGL (Homo sapiens, UniProt Q99685).
T1 construct: PC3 human cell membrane proteomes; endogenous in cells; host or cells: PC3 human cells (membrane proteome)
T1 sequence (Q99685 1-303): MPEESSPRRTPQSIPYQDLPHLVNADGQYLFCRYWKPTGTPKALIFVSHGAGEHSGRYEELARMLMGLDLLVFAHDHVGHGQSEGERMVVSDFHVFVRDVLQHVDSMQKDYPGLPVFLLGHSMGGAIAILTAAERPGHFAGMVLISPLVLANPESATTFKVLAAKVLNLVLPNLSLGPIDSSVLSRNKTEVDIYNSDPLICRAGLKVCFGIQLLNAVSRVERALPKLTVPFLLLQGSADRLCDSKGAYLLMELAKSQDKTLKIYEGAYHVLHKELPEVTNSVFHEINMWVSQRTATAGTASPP
The series is described as follows: In vitro competitive activity-based protein profiling (PC3 human cell membrane proteomes). It is filed as biochemical. As for the experimental part: PC3 human cell membrane proteomes (50 µL, 2.0 mg/mL total protein concentration) were preincubated with varying concentrations of inhibitors at 37° C. After 30 min, the ABPP probe JW912-Bodipy (1.0 µL, 50 µM in DMSO) was added and the mixture was incubated for 30 min at room temperature. Reactions were quenched with SDS loading buffer (15 μL-4×) and run on SDS-PAGE. Following gel imaging, serine hydrolase activity was determined by measuring fluorescent intensity of gel bands corresponding to MAGL using ImageJ 1.43u software. Intensities were converted to percent enzyme activity by normalizing to DMSO controls. IC50 values were determined by fitting percent enzyme activities to a non-linear regression, 4-parameter, sigmoidal dose response function in Prism GraphPad.

Series [3] is described as follows: In vitro human hepatocyte stability. It is filed as in vitro ADME. The note with it: cryopreserved human hepatocytes (pooled donor), human hepatocytes 0.5×10^6 cells/mL, read-out: Scaled-up unbound CLint. As for the experimental part: The metabolic stability of test articles (1 μM) in commercially sourced, pooled donor, cryopreserved human hepatocytes (0.5×10^6 cells/mL) was determined in duplicate. The CLint reactions (250 μL) were initiated by addition of test compound. Aliquots (25 μL) were taken at 0, 15, 30, 45, 60, 90, 120 and 240 minutes and then protein crashed with ice-cold acetonitrile containing internal standard then centrifuged (3220 g for 25 minutes). Supernatant was used for LC-MS/MS analysis. The in vitro half-life (in vitro t1/2) was determined from the slope value: in vitro t1/2=−0.693/k. Conversion of the in vitro t1/2 (in min) into the scale-up unbound intrinsic clearance (Scaled-up unbound CLint, in mL/min/kg) was done using the following equation (mean of duplicate determinations), with data shown in Table 5: Scaled-up unbound CLint=kV/N×scaling factor. V=incubation volume (0.25 mL); N=number of hepatocytes per well ([…]). Scaling factors for in vivo intrinsic clearance prediction are listed below: […]

In series [4] the target is T2, MAGL (Mus musculus, UniProt O35678).
T2 construct: brain proteomes were prepared and analyzed according to previously established methods; from tissue; host or cells: brain of wild-type C57Bl/6J mice
T2 sequence (O35678 1-303): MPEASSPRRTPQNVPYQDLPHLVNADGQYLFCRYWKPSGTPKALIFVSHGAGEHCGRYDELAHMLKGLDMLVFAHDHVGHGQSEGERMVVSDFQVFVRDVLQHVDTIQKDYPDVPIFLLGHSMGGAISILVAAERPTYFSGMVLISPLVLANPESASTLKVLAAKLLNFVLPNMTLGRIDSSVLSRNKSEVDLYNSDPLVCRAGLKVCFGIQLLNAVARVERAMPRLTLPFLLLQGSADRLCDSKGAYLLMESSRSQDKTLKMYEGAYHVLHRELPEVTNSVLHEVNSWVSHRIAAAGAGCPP
The series is described as follows: In vivo MAGL inhibition in mouse brain proteomes after oral gavage. The note with it: 5 mg/kg oral gavage, 4 h after administration, read-out: MAGL % inh. 5 mg/kg (mouse). As for the experimental part:
Inhibitors were administered to wild-type C57B1/6J by oral gavage in a vehicle of polyethylene glycol. Each animal was sacrificed 4 h following administration and brain proteomes were prepared and analyzed according to previously established methods (See Niphakis, M. J., et al. (2011) ACS Chem. Neurosci. and Long, J. Z., et al. Nat. Chem. Biol. 5:37-44).

The mark [5] stands for this setting: PBS pH 7.4, RT, read-out: pH 7.4 Solubility (kinetic).

As usually defined, the solubility (kinetic) is the concentration staying in solution when a stock, usually in DMSO, is diluted into the medium. On to `O=C(NCc1cccc(C(F)(F)F)n1)C1CC12CCN(C(=O)OC(C(F)(F)F)C(F)(F)F)CC2` (single isomer, unassigned) [Example 76, 1,1,1,3,3,3-hexafluoropropan-2-yl (R or S)-1-(((6-(trifluoromethyl)pyridin-2-yl)methyl)carbamoyl)-6-azaspiro[2.5]octane-6-carboxylate], for which the kinetic solubility at 2 h in series [1] (setting [5]) worked out at 1.33 µM. Further, on MAGL [2], the “MAGL % inh. 1 µM (human PC3)” value worked out at 100%. As usually defined, the CLint scaled is the capacity of the preparation to metabolise the compound, expressed as a volume cleared per time. As for `O=C(Nc1ccc(-n2cccn2)nc1)C1CC12CCN(C(=O)OC(C(F)(F)F)C(F)(F)F)CC2` (single isomer, unassigned) [Example 29, 1,1,1,3,3,3-hexafluoropropan-2-yl (R or S)-1-((6-(1H-pyrazol-1-yl)pyridin-3-yl)carbamoyl)-6-azaspiro[2.5]octane-6-carboxylate], the intrinsic metabolic clearance (CLint scaled) at 1 μM in series [3] came to 32.7 mL/min/kg. Besides, the kinetic solubility at 2 h in series [1] (setting [5]) amounted to 8.63 µM. As for `COc1ccc(NC(=O)[C@H]2CC23CCN(C(=O)OC(C(F)(F)F)C(F)(F)F)CC3)cn1` (single isomer, unassigned) [Example 37], the inhibition at 5 mg/kg at MAGL [4] came out at 25%. `CC1(NC(=O)C2CC23CCN(C(=O)OC(C(F)(F)F)C(F)(F)F)CC3)CCOCC1` (single isomer, unassigned) [Example 132, 1,1,1,3,3,3-hexafluoropropan-2-yl (R or S)-1-((4-methyltetrahydro-2H-pyran-4-yl)carbamoyl)-6-azaspiro[2.5]octane-6-carboxylate]: in series [3], the intrinsic metabolic clearance (CLint scaled) at 1 μM came to 44.2 mL/min/kg. For the same molecule, at MAGL [4], the inhibition at 5 mg/kg came to 100%. In the case of `O=C(OC(C(F)(F)F)C(F)(F)F)N1CCC2(CC1)CC2C(=O)N1CCc2ncncc2C1` (single isomer, unassigned) [Example 60, 1,1,1,3,3,3-hexafluoropropan-2-yl (R or S)-1-(5,6,7,8-tetrahydropyrido[4,3-d]pyrimidine-6-carbonyl)-6-azaspiro[2.5]octane-6-carboxylate], in series [1] (setting [5]), the solubility (kinetic) at 2 h was found to be 259 µM. Besides, the “MAGL % inh. 1 µM (human PC3)” value at MAGL [2] was 100%.

As to `O=C(Nc1ccc(C(F)(F)F)nc1)C1CC12CCN(C(=O)OC(C(F)(F)F)C(F)(F)F)CC2` (single isomer, unassigned) [Example 78, 1,1,1,3,3,3-hexafluoropropan-2-yl (R or S)-1-((6-(trifluoromethyl)pyridin-3-yl)carbamoyl)-6-azaspiro[2.5]octane-6-carboxylate], the solubility (kinetic) at 2 h in series [1] (PBS pH 2.0, RT, read-out: pH 2 Solubility (kinetic)) was determined as 17 µM; in series [1] (setting [5]), 12.6 µM. Also, the “MAGL % inh. 1 µM (human PC3)” value on MAGL [2] turned out to be 100%. Turning to `O=C(Nc1cccnn1)[C@@H]1CC12CCN(C(=O)OC(C(F)(F)F)C(F)(F)F)CC2` [Example 5, 1,1,1,3,3,3-Hexafluoropropan-2-yl (R)-1-(pyridazin-3-ylcarbamoyl)-6-azaspiro[2.5]octane-6-carboxylate], the inhibition at 5 mg/kg at MAGL [4] turned out to be 0%.

Regarding `Cc1ccc(NC(=O)[C@H]2CC23CCN(C(=O)OC(C(F)(F)F)C(F)(F)F)CC3)nn1` (single isomer, unassigned) [Example 106], the inhibition at 5 mg/kg on MAGL [4] stood at 0%.

On to `COc1ccc(NC(=O)[C@@H]2CC23CCN(C(=O)OC(C(F)(F)F)C(F)(F)F)CC3)cn1` (single isomer, unassigned) [Example 36], for which the inhibition at 5 mg/kg on MAGL [4] was determined as 0%. As for `Cc1ccc(NC(=O)C2CC23CCN(C(=O)OC(C(F)(F)F)C(F)(F)F)CC3)cn1` (single isomer, unassigned) [Example 81, 1,1,1,3,3,3-hexafluoropropan-2-yl (R or S)-1-((6-methylpyridin-3-yl)carbamoyl)-6-azaspiro[2.5]octane-6-carboxylate], the solubility (kinetic) at 2 h in series [1] (setting [5]) worked out at 130 µM. Further, the inhibition at 5 mg/kg at MAGL [4] was 25%.

For `CS(=O)(=O)Nc1ccc(NC(=O)C2CC23CCN(C(=O)OC(C(F)(F)F)C(F)(F)F)CC3)cn1` (single isomer, unassigned) [Example 181, 1,1,1,3,3,3-hexafluoropropan-2-yl (R or S)-1-((6-(methylsulfonamido)pyridin-3-yl)carbamoyl)-6-azaspiro[2.5]octane-6-carboxylate], in series [3], the CLint scaled at 1 μM amounted to 1.94 mL/min/kg. Further, the kinetic solubility at 2 h in series [1] (setting [5]) was found to be 296 µM.

As to `Cc1ncc(NC(=O)C2CC23CCN(C(=O)OC(C(F)(F)F)C(F)(F)F)CC3)cn1` (single isomer, unassigned) [Example 103, 1,1,1,3,3,3-hexafluoropropan-2-yl (R or S)-1-((2-methylpyrimidin-5-yl)carbamoyl)-6-azaspiro[2.5]octane-6-carboxylate], the inhibition at 5 mg/kg at MAGL [4] amounted to 50%.

Consider `CC1(CNC(=O)C2CC23CCN(C(=O)OC(C(F)(F)F)C(F)(F)F)CC3)CCOCC1` (single isomer, unassigned) [Example 168, 1,1,1,3,3,3-hexafluoropropan-2-yl (R or S)-1-(((4-methyltetrahydro-2H-pyran-4-yl)methyl)carbamoyl)-6-azaspiro[2.5]octane-6-carboxylate], for which the intrinsic clearance (CLint scaled) at 1 μM in series [3] was found to be 61.4 mL/min/kg. Regarding `O=C(Nc1cnc(C(F)(F)F)nc1)C1CC12CCN(C(=O)OC(C(F)(F)F)C(F)(F)F)CC2` (single isomer, unassigned) [Example 99, 1,1,1,3,3,3-hexafluoropropan-2-yl (R or S)-1-((2-(trifluoromethyl)pyrimidin-5-yl)carbamoyl)-6-azaspiro[2.5]octane-6-carboxylate], the kinetic solubility at 2 h in series [1] (setting [5]) amounted to 28.5 µM. The “MAGL % inh. 1 µM (human PC3)” value on MAGL [2] stood at 100%. Consider `O=C(Nc1ccnnc1)C1CC12CCN(C(=O)OC(C(F)(F)F)C(F)(F)F)CC2` (single isomer, unassigned) [Example 108, 1,1,1,3,3,3-hexafluoropropan-2-yl (R or S)-1-(pyridazin-4-ylcarbamoyl)-6-azaspiro[2.5]octane-6-carboxylate], for which the inhibition at 5 mg/kg on MAGL [4] is 75%. Consider `CN(C(=O)C1CC12CCN(C(=O)OC(C(F)(F)F)C(F)(F)F)CC2)c1cccnc1` (single isomer, unassigned) [Example 43, 1,1,1,3,3,3-hexafluoropropan-2-yl (R or S)-1-(methyl(pyridin-3-yl)carbamoyl)-6-azaspiro[2.5]octane-6-carboxylate], for which the solubility (kinetic) at 2 h in series [1] (setting [5]) came to 233 µM. In addition, on MAGL [2], the “MAGL % inh. 1 µM (human PC3)” value is given as 100%. Further, the inhibition at 5 mg/kg on MAGL [4] is 100%. For the molecule `O=C(NCc1ccccc1)[C@H]1CC12CCN(C(=O)OC(C(F)(F)F)C(F)(F)F)CC2` (single isomer, unassigned) [Example 150], the CLint scaled at 1 μM in series [3] was 88.8 mL/min/kg.
